Measured values: PubChem BioAssay (NCI)
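Here, GI50 denotes the concentration required for 50% inhibition of growth. The concentration for full growth arrest is given as TGI.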

What was measured:
Test in all cases: NCI-60 cell line screen, 384-well format
[1] = system: NCI-H460 NSCLC
[2] = system: SK-MEL-28 melanoma
[3] = system: SN12C renal
[4] = system: A549 NSCLC
[5] = system: LOX IMVI melanoma
[6] = system: T-47D breast
[7] = system: HT29 colon
[8] = system: ACHN renal
[9] = system: TK-10 renal
[10] = system: SF-539 CNS
[11] = system: CAKI-1 renal
[12] = system: NCI-H226 lung
[13] = system: HCT-15 colon

SMILES: O=c1[nH]nc2c3c(cccc13)NC(CN1Cc3ccccc3C1)=N2
- GI50 [1]: 5.18 µM
- TGI [1]: > 71.8 µM
- GI50 [2]: 5.99 µM
- TGI [2]: 27.6 µM
- GI50 [3]: 4.09 µM
- TGI [3]: > 39.4 µM
- GI50 [4]: 5.19 µM
- TGI [4]: 67.5 µM
- GI50 [5]: 6.61 µM
- TGI [5]: > 61.4 µM
- GI50 [6]: 22.8 µM
- TGI [6]: > 100 µM
- GI50 [7]: 4.31 µM
- TGI [7]: 26.3 µM
- GI50 [8]: 5.5 µM
- TGI [8]: > 78.1 µM
- GI50 [9]: 2.7 µM
- TGI [9]: 17.1 µM
- GI50 [10]: 20.9 µM
- TGI [10]: > 100 µM
- GI50 [11]: 2.03 µM
- TGI [11]: > 100 µM
- GI50 [12]: 3.21 µM
- TGI [12]: 52 µM
- GI50 [13]: 8.44 µM
- TGI [13]: > 100 µM
